# In PubChem BioAssay (NCI):
#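 Method: 48-hour compound exposure of cells in 96-well plates, five concentrations, linear interpolation of endpoints. GI50: concentration for 50% inhibition of growth. TGI: total growth inhibition.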
# Tested on: MDA-MB-468 breast
# Assay: growth of human tumour cells (NCI), 48 h
Compound,GI50 [nM],TGI [nM]
CCC#CC[C@H]1C/C=C2/C(=O)C=C[C@@H]2C/C=C\CCCC(=O)O1,928,5470
O=C(c1cccc(O)c1O)c1cn(Cc2ccc(F)cc2)c2cccc(O)c12,5460,21700
COc1ccc(C(=O)c2cc(C)c(OC)c(C)c2)c(OC)c1N(C(=O)C(Cl)Cl)C(=O)C(Cl)Cl,25.9,92.6
Nc1ncc(-c2cnn(CCO)c2)c2scc(-c3ccc(NC(=O)Nc4cccc(F)c4)cc3)c12,443,5660
COc1cc(OC)c(/C=C/C(=O)c2c(OC)cccc2OC)c(OC)c1,394,3160
COc1cc[nH]c1/C=C1\C(=O)Nc2ccccc21,1110,> 25000
CCN1C(=O)CNc2ncc(-c3ccc(-c4ncn[nH]4)nc3C)nc21,196,1170
CC1CN1CC(O)C(O)CN1CC1C (stereo unspecified),278,1680
CCS(=O)(=O)c1ccc(OC)c(Nc2ncc(-c3cccc(C(C)=O)c3)o2)c1,3460,> 25000
NC(=S)N/N=C/c1ccc(OC(=O)COc2ccc(Cl)cc2)cn1,2540,9590
Cc1cc(C)c(C(=O)CC(=O)c2cccnc2)c(C)c1,8680,49800
CCN(CC)c1ccc(C(=N)c2ccc(N(CC)CC)cc2)cc1,312,1430
O=C(CCl)Nc1ccc(Cl)cc1,2340,6280
CCS(=O)(=O)c1ccc(OC)c(Nc2ncc(-c3cccc(OC)c3)o2)c1,10500,> 25000
COc1ccc(OC)c(/C=C/C(=O)N/N=C/c2ccc(Cl)cc2)c1,76.8,363
CCOC(=O)c1cc(/C(=N\O)c2cc(OC)c(OC)c(OC)c2)n2cc(C)cc(C)c12,1460,4790
COC(=O)Nc1nc2ccc(Oc3ccc(NC(=O)Nc4ccccc4)cc3)cc2[nH]1,56.1,489
CN(C)c1ccc(N)cc1,2810,8700
O=C(Nc1ccc(Cl)cc1)c1cc(-c2ccc(F)cc2)c2sc(=O)[nH]c2n1,687,4970
CCCCN=C(N)c1ccc(OCCSCCOc2ccc(C(N)=NCCCC)cc2)cc1,360,3870
CC/C=C\C[C@@H]1C/C=C2/C(=O)C=C[C@H]2C/C=C\CCCC(=O)O1,976,2580
O=C(N/N=C/c1cccc(O)c1O)c1ccccc1,1290,11100
CC(C)c1ccc(C(=O)Nc2sc3c(c2C(N)=O)CCC(=O)C3)cc1,453,1810
Cc1ccc(C(=NN=C(N)N)c2ccc(C)cc2)cc1,232,750
COc1cc(C2=NN(C(C)=O)C(c3ccc(OC(C)=O)cc3OC(C)=O)O2)c(OC(C)=O)c2ccccc12 (stereo unspecified),1060,6580
COc1ccc(C(=O)COc2cccc(/C=C3\COc4ccc5ccccc5c4C3=O)c2)cc1,2360,12300
COc1cc(NC(=O)c2cc(O)c(CC=C(C)C)c(O)c2)cc2c1O[C@]1(C)CC[C@@H](O)C(C)(C)[C@H]1C2,3420,19800
CCOC(=O)Sc1ncnc2nc[nH]c12,350,> 100000
